pKi: −log10 of the molar value. Structures can show the parent of a compound that is named as a salt.
Tests used:
[1] = biological target: RNase P isolated from D. discoideum; assay: RNase P inhibition assay, enzyme from D. discoideum; assay type: biochemical, Dictyostelium discoideum; conditions: negative intercept of slope replots, 37° C., buffer D, 10% DMSO
From the text: Inhibitory Activity on RNAse P. We have developed a method by which we can estimate rapidly the biological activity of the polyamine-retinoid conjugates. This method is based on the effect of the polyamine-retinoid conjugates on RNase P activity and is described in detail under the EXAMPLE 7. All synthesized conjugates were screened for their effect on RNase P activity by constructing the dose response curves. […] In order to carry out such analysis, the initial velocity in the presence or absence of the conjugate was determined from the initial slopes of time plots. The data plotted in double reciprocal plots (1/v versus 1/[S]) with increasing concentrations of polyamine-retinoid conjugates and the Ki values (the dissociation constant of the inhibitor (I), where I is a polyamine-retinoid conjugate, with the enzyme) were determined from the replots of the slopes of the double reciprocal plots versus the inhibitor's concentration (Papadimou et al., J. BIOL. CHEM. 273, 24375 (1998), Papadimou et al., SKIN PHARMACOL. APPL. SKIN PHYSIOL. 13, 345 (2000)). These replots lead to the graphical determination of Ki values from the negative intercept of the line with the I-axis. […] Similar plots were constructed for all conjugates. The Ki value is a very good measure for the accurate potency of the polyamine-retinoid conjugates.
(§1) RNase P assays were carried out at 37° C. in 20 μbuffer D (50 mM Tris/HCl pH 7.6, 10 mM NH4Cl, 5 mM MgCl2 and 5 mM dithiothreitol) if RNase P isolated from D. discoideum was used (Stathopoulos et al.; EUR. J. BIOCHEM. 228, 976 (1995)) or buffer K (50 mM Tris/HCl pH 7.5, 100 mM NH4Cl, 5 mM MgCl2 and 5 mM dithiothreitol) if RNase P isolated from human epidermal keratinocytes was used (Drainas et al, unpublished data), containing 2-5 finol pre-tRNA^ser substrate (an in vitro labeled transcript of the Schizosaccharoinyces pombe tRNA^ser gene supSI) and 1.3 μg protein from the RNase P fraction. Stock solutions of retinoids (natural or synthetic), are prepared in 100% dimethylosulfoxide (DMSO). When retinoids are used, enzyme assays are carried out in the presence of 10% DMSO. The reactions were stopped by addition of 5 μl stop dye (80% formamide, 50 mM EDTA, 0.1% bromophenol blue, 0.1% xylene cyanol). Reaction products were resolved on a denaturing 10% polyacrylamide/8 M urea gel and visualized by autoradiography without drying. Activity was quantified by Cerenkov counting of excised gel slices.

[2] = system: RNase P from Dictyostelium discoideum; conditions: literature; RNase P isolated from D. discoideum and from normal human epidermal keratinocytes; cited from earlier work
[3] = system: RNase P isolated from D. discoideum; conditions: literature reports; RNase P from D. discoideum and normal human epidermal keratinocytes; cited from earlier work
[4] = Manfredini et al., J. MED. CHEM., 40, 3851 (1997); cited from earlier work
[5] = biological target: RNase P from Dictyostelium discoideum; assay: RNase P inhibition (pre-tRNA(Ser) cleavage, double reciprocal plots and slope replots); assay type: biochemical; conditions: D. discoideum RNase P; 37° C., buffer D, 10% DMSO; from negative intercept of the slope replots
From the text: Inhibitory Activity on RNAse P. We have developed a method by which we can estimate rapidly the biological activity of the polyamine-retinoid conjugates. This method is based on the effect of the polyamine-retinoid conjugates on RNase P activity and is described in detail under the EXAMPLE 7. All synthesized conjugates were screened for their effect on RNase P activity by constructing the dose response curves. […] The accurate estimation of the inhibitory potency on the RNAse P of the strongest polyamine-retinoid conjugates were elucidated by detailed kinetic analysis of their effect on D. discoideum or human epidermal keratinocytes RNase P activity. In order to carry out such analysis, the initial velocity in the presence or absence of the conjugate was determined from the initial slopes of time plots. The data plotted in double reciprocal plots (1/v versus 1/[S]) with increasing concentrations of polyamine-retinoid conjugates and the Ki values (the dissociation constant of the inhibitor (I), where I is a polyamine-retinoid conjugate, with the enzyme) were determined from the replots of the slopes of the double reciprocal plots versus the inhibitor's concentration (Papadimou et al., J. BIOL. CHEM. 273, 24375 (1998), Papadimou et al., SKIN PHARMACOL. APPL. SKIN PHYSIOL. 13, 345 (2000)). These replots lead to the graphical determination of Ki values from the negative intercept of the line with the I-axis. […] Similar plots were constructed for all conjugates. The Ki value is a very good measure for the accurate potency of the polyamine-retinoid conjugates. […] Similar Ki values were obtained with normal human epidermal keratinocytes RNase P.
as §1

[6] = system: IFN-γ production by peripheral blood mononuclear cells; assay: Intracellular IFN-γ in PMA/ionomycin-stimulated peripheral blood mononuclear cells (flow cytometry); assay type: cell-based, human
Experimental: (§2) Anti-Inflammatory Activity. Preliminary experiments were performed to determine the optimum conditions for IL-2 and IFN-γ detection intracellularly (data not shown), which mainly involved determination of brefeldin, ionomycin and PMA concentrations and duration of the incubation period and of the brefeldin presence. It was determined that the addition at the initiation of the incubation period of 5 ng/ml of PMA in combination with 250 ng/ml of ionomycin, as well as the addition for the last 2 h of a 4 h incubation period of 5 μg/ml of brefeldin, were accompanied by a peak release of both cytokines in the intracellular space.
(§3) For the purpose of the study, peripheral blood mononuclear cells (PBMC) from ten healthy volunteers (age 33-52 yrs) were incubated in 1 ml volume (RPMI 1640/10% FCS) for varying time periods at 37° C. in a CO2 (5%) incubator in the presence or absence of PMA (Sigma, St Louis, Mo.), ionomycin (Sigma, St Louis, Mo.) and/or the polyamine-retinoid conjugate (10^−4, 10^−5, 10^−6 M) as well as a protein transport inhibitor, brefeldin (Sigma, St Louis, Mo.) to prevent cytokine secretion in the extracellular space.
Following this incubation, PBMC were stained with either an anti-CD4-FITC or anti-CD8-FITC monoclonal antibody (Beckton Dikinson Hellas, Athens, Greece) in a PBS buffer containing 0.5% BSA and 0.01% NaN3, and were subsequently fixed with paraformaldehyde and incubated overnight. […] Fixed PBMC were subsequently stained with an anti-IL-2/PE or anti-IFN-γ/PE monoclonal antibody (Diaclone, Besancon, France) and analysed for intracellular expression of IL-2 or IFN-γ and membrane expression of the CD4 or CD8 antigens in a FACSCAN flow cytometer. […] The immunofluorescence cut-off was set up in unstimulated cultures as background and results were expressed either as the percentage of CD4/IL-2+ and CD8/IL-2+ (FIG. 9) and CD8/IFN-γ^+ and CD4/IFN-γ^+ (FIG. 11) cells, or alternatively as their mean fluorescence intensity (FIGS. 10 and 12, respectively).

[7] = system: IL-2 production by peripheral blood mononuclear cells; assay: Intracellular IL-2 in PMA/ionomycin-stimulated peripheral blood mononuclear cells (flow cytometry); assay type: cell-based, human
Experimental: as §2, §3
Following this incubation, PBMC were stained with either an anti-CD4-FITC or anti-CD8-FITC monoclonal antibody (Beckton Dikinson Hellas, Athens, Greece) in a PBS buffer containing 0.5% BSA and 0.01% NaN3, and were subsequently fixed with paraformaldehyde and incubated overnight. In the next step, fixed PBMCs were washed and resuspended in a PBS buffer containing 0.5% BSA, 0.5% saponin (Sigma, St Louis, Mo.) (to permeabilize cells) and 0.01% NaN3. Fixed PBMC were subsequently stained with an anti-IL-2/PE or anti-IFN-γ/PE monoclonal antibody (Diaclone, Besancon, France) and analysed for intracellular expression of IL-2 or IFN-γ and membrane expression of the CD4 or CD8 antigens in a FACSCAN flow cytometer. Throughout this step, saponin-supplied PBS was used, since its permeabilisation effect is reversible. The immunofluorescence cut-off was set up in unstimulated cultures as background and results were expressed either as the percentage of CD4/IL-2+ and CD8/IL-2+ (FIG. 9) and CD8/IFN-γ^+ and CD4/IFN-γ^+ (FIG. 11) cells, or alternatively as their mean fluorescence intensity (FIGS. 10 and 12, respectively).

CC(C=CC1=C(C)CCCC1(C)C)=CC=CC(C)=CC(=O)N(CCCN)CCCCN(CCCN)C(=O)C=C(C)C=CC=C(C)C=CC1=C(C)CCCC1(C)C [3DIIIa, N^4,N^9-Bis(All-Trans-Retinoyl)Spermine]
pKi [1]: 5.96

CC(C=CC1=C(C)CCCC1(C)C)=CC=CC(C)=CC(=O)NCCCNCCCCNCCCN [3DIIa, N^1-retinoylspermine]
pKi [1]: 5.62

COc1cc(C)c(/C=C/C(C)=C/C=C/C(C)=C/C(=O)O)c(C)c1C [Acitretin (Aci), acitretin]
inhibition of the enzyme ribonuclease P (RNase P) [2]: inhibit the enzyme ribonuclease P
pKi [1]: 5.10
inhibition of ribonuclease P (RNase P) [3]: inhibit

CC1=C(/C=C/C(C)=C/C=C/C(C)=C\C(=O)O)C(C)(C)CCC1 [Isotretinoin, 13-cis-retinoic acid]
inhibition of the enzyme ribonuclease P (RNase P) [2]: inhibit the enzyme ribonuclease P
pKi [1]: 4.70
inhibition of ribonuclease P (RNase P) [3]: inhibit

CC1=C(/C=C/C(C)=C/C=C/C(C)=C/C(=O)NCCCNC(=O)/C=C(C)/C=C/C=C(C)/C=C/C2=C(C)CCCC2(C)C)C(C)(C)CCC1 [N^1, N^3-diretinoyl-1,3-diaminopropane]
cytostatic activity [4]: low cytostatic activity

COc1cc(C)c(/C=C/C(C)=C/C=C/C(C)=C/C(=O)NCCCNCCCCNCCCNC(=O)/C=C(C)/C=C/C=C(C)/C=C/c2c(C)cc(OC)c(C)c2C)c(C)c1C [N^1,N^12-Aci2-Spermine (3DIb). 2 HCl, N^1,N^12-Aci2-Spermine]
pKi [5]: 6.02

CC1=C(/C=C/C(C)=C/C=C/C(C)=C/C(=O)NCCCNCCCCNCCCNC(=O)/C=C(C)/C=C/C=C(C)/C=C/C2=C(C)CCCC2(C)C)C(C)(C)CCC1 [N^1,N^12-RA2-Spermine (3DIa), N^1,N^12-Bisretinoylspermine]
CD4+/IFN-γ+ cell intensity of fluorescence ([6]; 10^−4 M, PMA/ionomycin-induced): decrease
percentage of CD8+/IFN-γ+ cells ([6]; 10^−4 M, PMA/ionomycin-induced): decrease
effect on IFN-γ (CD4+/IFN-γ+ intensity of fluorescence, percentage of CD8+/IFN-γ+ cells) ([6]; two lower concentrations, 10^−5 and 10^−6 M): minimal or no effect
intensity of fluorescence (MFI) of CD4+/IL-2+ cells ([7]; 10^−4 M, PMA/ionomycin-induced): decrease
intensity of fluorescence (MFI) of CD8+/IL-2+ cells ([7]; 10^−4 M, PMA/ionomycin-induced): decrease
percentage of CD4+/IL-2+ cells ([7]; 10^−4 M, PMA/ionomycin-induced): decrease
percentage of CD8+/IL-2+ cells ([7]; 10^−4 M, PMA/ionomycin-induced): decrease
effect on PMA/ionomycin-induced IL-2 (percentage of CD4+/IL-2+ and CD8+/IL-2+ cells, intensity of fluorescence) ([7]; 10^−5 and 10^−6 M): minimal or no effect
pKi [5]: 6.30

COc1cc(C)c(/C=C/C(C)=C/C=C/C(C)=C/C(=O)NCCCNCCCCNCCCN)c(C)c1C [N^1-Aci-Spermine (3DIIb). 3 HCl, N^1-Aci-Spermine]
pKi [5]: 5.61

CC1=C(/C=C/C(C)=C/C=C/C(C)=C/CO)C(C)(C)CCC1 [Retinol, retinol]
inhibition of the enzyme ribonuclease P (RNase P) [2]: inhibit the enzyme ribonuclease P
pKi [1]: 2.83
inhibition of ribonuclease P (RNase P) [3]: inhibit

CCOC(=O)c1ccc(/C=C(\C)c2ccc3c(c2)C(C)(C)CCC3(C)C)cc1 [Ro 13-6298]
inhibition of the enzyme ribonuclease P (RNase P) [2]: inhibit the enzyme ribonuclease P
pKi [5]: 2.36
inhibition of ribonuclease P (RNase P) [3]: inhibit

C/C(=C\c1ccc(C(=O)O)cc1)c1ccc2c(c1)C(C)(C)CCC2(C)C [Ro 13-7410]
inhibition of the enzyme ribonuclease P (RNase P) [2]: inhibit the enzyme ribonuclease P
pKi [5]: 4.35
inhibition of ribonuclease P (RNase P) [3]: inhibit

CCS(=O)(=O)c1ccc(/C=C(\C)c2ccc3c(c2)C(C)(C)CCC3(C)C)cc1 [Ro 15-1570]
inhibition of the enzyme ribonuclease P (RNase P) [2]: inhibit the enzyme ribonuclease P
pKi [5]: 2.44
inhibition of ribonuclease P (RNase P) [3]: inhibit

CC1=C(/C=C/C(C)=C/C=C/C(C)=C/C(=O)O)C(C)(C)CCC1 [all-trans-Retinoic acid (RA), all-trans-retinoic acid]
inhibition of the enzyme ribonuclease P (RNase P) [2]: inhibit the enzyme ribonuclease P
pKi [1]: 4.82
inhibition of ribonuclease P (RNase P) [3]: inhibit

O=C1c2c(O)cccc2Cc2cccc(O)c21 [anthralin]
inhibition of the enzyme ribonuclease P (RNase P) [2]: inhibit the enzyme ribonuclease P

C=C1/C(=C\C=C2/CCC[C@]3(C)[C@@H]([C@H](C)/C=C/[C@@H](O)C4CC4)CC[C@@H]23)C[C@@H](O)C[C@@H]1O [calcipotriol]
inhibition of the enzyme ribonuclease P (RNase P) [2]: inhibit the enzyme ribonuclease P
inhibition of ribonuclease P (RNase P) [3]: inhibit

From US7517913B2, “Polyamine conjugates with acidic retinoids and preparation thereof” (priority 2002, dated 2009)
